The assay deals with Pseudomonas aeruginosa strain. The assay can be described thus: embedding of 1 ml and 0.1 ml samples of mother solution in PCA medium. The class given is cell-based. The following applies: for bacteria count in embedding: PCA medium 48 hours, strain at 1.9 10^8, bromoform 60 mg/l. Here is the method: In order to test that the antibacterial and/or antifungal action is in fact related to a group of halogenated molecules of low molecular weight, an aqueous solution of 60 mg/l bromoform was prepared and its action compared with that of a permeate of nanofiltration at the threshold of 400 Daltons which therefore only contained micromolecules, in particular halogenated molecules. After embedding 1 ml and 0.1 ml samples in a PCA medium for 48 hours from a mother solution containing the product to be tested and the Pseudomonas aeruginosa strain at a concentration of 1.9 10^8, the results in the following table were obtained.
In this table, and in the following tables, “>>” means that bacteria developed and could not be counted.
Also, the microfiltration permeate was fractionated by subjecting it to ultrafiltration (uF) or nanofiltration (nF), and the antibacterial action on the Pseudomonas strain was measured for each fraction and at different times in accordance with the protocol described below. The following results were obtained:
Other tests were conducted to measure the influence of pH on the extract's activity and its ageing. Acidification was carried out during the so-called acidification stage of the method for obtaining the extract of the invention, using citric acid.

A value given as a limit tells only on which side of the number the result lay.

Regarding `BrC(Br)Br` [Bromoform, bromoform], the “bacteria count in embedding” value is, setting by setting: (0.1 ml embedding) “>>”; (1 ml embedding) “>>”. The “action against the Pseudomonas aeruginosa strain” value (bromoform at 1.5 times the concentration in the extract, permeate on second day after production) was “no action”.

Source of the values: US6346252B1, “Method of obtaining an antibacterial and/or antifungal extract from the algae, bonnemaisoniacea” (Algues et Mer (S.A.R.L.), priority 1996, dated 2002).
